The results in this text go back to US20260015337A1 (Trawsfynydd Therapeutics, Inc., priority 2022, published 2026).

Each structure is given as a SMILES string. Where only a bound is given, the exact number is not on record here.

For one assay, the target named is 3CL Protease (Severe acute respiratory syndrome coronavirus 2, UniProt P0DTD1). The assay can be described thus: 3CL Protease enzymatic activity assay (BPS Bioscience Assay Kit #78043-1, fluorescence). The class given is biochemical, SARS-CoV-2. To be noted: Table A; 30 min preincubation, 40 μM substrate, 4 hours at room temperature; read-out: IC50, nM (3CL Protease enzymatic activity). The protocol: For determination of 3CL Protease enzymatic activity was used Assay Kit of BPS Bioscience, San Diego, CA (Catalog #78043-1).
All samples and controls should be tested in duplicate. • 1) Just before use, dilute 0.5 M DTT 500 times into the 3CL Protease Assay Buffer to obtain a DTT concentration of 1 mM. For example, add 10 μl of 0.5 M DTT to 5 ml of assay buffer. Prepare enough DTT-containing buffer as required for the assay. Store the remaining assay buffer at −20° C. • 2) Thaw the 3CL Protease on ice. Briefly spin the tube containing the enzyme to recover the full content of the tube. Note: 3CL Protease enzyme is sensitive to freeze/thaw cycles. […] Note: The exact concentration and volume of enzyme is lot-specific and will be indicated on the tube. Calculate required dilution from the information in the tube. It may be desirable to dilute the enzyme serially to avoid using large amounts of protease assay buffer for the dilution. • 4) Add 30 μl of diluted 3CL Protease to the wells designated as “Positive Control,” “Inhibitor Control,” and “Test Inhibitor.” Add 30 μl of Assay Buffer (containing 1 mM DTT) to the “Blank” wells. • 5) Dilute the 50 μg GC376 in 200 μl of Assay Buffer to obtain a 500 μM solution. Add 10 μl of GC376 (500 μM) to the wells labeled “Inhibitor Control”. Aliquot and store the remaining solution at −80° C. • 6) Prepare the Test Inhibitor. The final concentration of DMSO in the assay should not exceed 1%. If the Test Inhibitor is dissolved in DMSO, make a 100-fold higher concentration of the compound than the highest desired concentration. Then make a 20-fold dilution in 1× Assay Buffer (containing DTT). At this step the compound concentration is 5-fold higher than the final concentration. If the test inhibitor is dissolved in water, make a 5-fold higher concentration of the test compound than the final desired concentration in the Assay buffer (containing DTT). Add 10 μl of Test Inhibitor to each well designated “Test Inhibitor”. • 7) Diluent Solution (no inhibitor): add 10 μl of assay buffer (if the test compound is water soluble and was diluted in assay buffer) or 10 μl of 5% DMSO diluted in assay buffer (if DMSO was used to dissolve the test inhibitor) to “Blank” and “Positive Control” wells.
• 8) Preincubate for 30 min at room temperature with slow shaking. • 9) Dilute the 25 μl of 3CL Protease substrate (10 mM) in 1.25 ml of the Assay Buffer containing DTT, to make a […] solution. The final concentration of the 3CL Protease substrate in a 50 μl reaction is 40 μM. • 10) Start the reaction by adding 10 μl of the substrate solution to all the wells. Seal the plate with the plate sealer and incubate for 4 hours at room temperature with slow shaking. • 11) Measure the fluorescence intensity in a microtiter plate-reader fluorometer (Tecan Spark Cyto) capable of excitation at a wavelength 360 nm and detection of emission at a wavelength 460 nm. The fluorescence intensity can also be measured kinetically. The “Blank” value is subtracted from all other values. • The % inhibition was then used to calculate the IC50 values.
A word on the IC50: it is the concentration that inhibits the measured activity by half. On to `CC(C)(C)[C@H](NC(=O)C(F)(F)F)C(=O)N1C[C@H]2[C@@H]([C@H]1C(=O)NC(C#N)Cc1cc3c([nH]c1=O)CCCC3)C2(C)C` (mixture of isomers) [Compound 121, (1R,2S,5S)—N-(1-Cyano-2-(2-oxo-1,2,5,6,7,8-hexahydroquinolin-3-yl)ethyl)-3-((S)-3,3-dimethyl-2-(2,2,2-trifluoroacetamido)butanoyl)-6,6-dimethyl-3-azabicyclo[3.1.0]hexane-2-carboxamide], for which the IC50 was in the range of 250 to 500 nM.
As for `CC(C)(C)[C@H](NC(=O)C(F)(F)F)C(=O)N1C[C@H]2C([C@H]1C(=O)NC(C#N)Cc1ccc[nH]c1=O)C2(C)C` (stereo in doubt) [Compound 101, (1R,2S,5S)—N-(1-Cyano-2-(2-oxo-1,2-dihydropyridin-3-yl)ethyl)-3-((S)-3,3-dimethyl-2-(2,2,2-trifluoroacetamido)butanoyl)-6,6-dimethyl-3-azabicyclo[3.1.0]hexane-2-carboxamide], the IC50 was in the range of 100 to 250 nM.
`Cc1ccc2[nH]c(=O)c(CC(C#N)NC(=O)[C@@H]3C4[C@H](CN3C(=O)[C@@H](NS(C)(=O)=O)C(C)(C)C)C4(C)C)cc2c1` (stereo in doubt) [Compound 102, (1R,2S,5S)—N-(1-Cyano-2-(6-methyl-2-oxo-1,2-dihydroquinolin-3-yl)ethyl)-3-((S)-3,3-dimethyl-2-(methylsulfonamido)butanoyl)-6,6-dimethyl-3-azabicyclo[3.1.0]hexane-2-carboxamide]: the IC50 was below 50 nM.
Same read-out and setting: with `CC(C)(C)[C@H](NC(=O)C(F)(F)F)C(=O)N1C[C@H]2C([C@H]1C(=O)NC(C#N)Cc1cc3cc(Cl)ccc3[nH]c1=O)C2(C)C` (stereo in doubt) [Compound 104, (1R,2S,5S)—N-(2-(6-Chloro-2-oxo-1,2-dihydroquinolin-3-yl)-1-cyanoethyl)-3-((S)-3,3-dimethyl-2-(2,2,2-trifluoroacetamido)butanoyl)-6,6-dimethyl-3-azabicyclo[3.1.0]hexane-2-carboxamide] the figure was 50 to 100 nM; with `CC(C)(C)[C@H](NC(=O)C(F)(F)F)C(=O)N1C[C@H]2C([C@H]1C(=O)NC(C#N)Cc1cc3ccc(Cl)cc3[nH]c1=O)C2(C)C` (stereo in doubt) [Compound 105, (1R,2S,5S)—N-(2-(7-Chloro-2-oxo-1,2-dihydroquinolin-3-yl)-1-cyanoethyl)-3-((S)-3,3-dimethyl-2-(2,2,2-trifluoroacetamido)butanoyl)-6,6-dimethyl-3-azabicyclo[3.1.0]hexane-2-carboxamide], 50 to 100 nM; with `CC(C)(C)[C@H](NC(=O)C(F)(F)F)C(=O)N1C[C@H]2C([C@H]1C(=O)NC(C#N)Cc1cc3ccc(F)cc3[nH]c1=O)C2(C)C` (stereo in doubt) [Compound 106, (1R,2S,5S)—N-(1-Cyano-2-(7-fluoro-2-oxo-1,2-dihydroquinolin-3-yl)ethyl)-3-((S)-3,3-dimethyl-2-(2,2,2-trifluoroacetamido)butanoyl)-6,6-dimethyl-3-azabicyclo[3.1.0]hexane-2-carboxamide], 100 to 250 nM.
Same read-out and setting: with `Cc1ccc2[nH]c(=O)c(C[C@@H](C#N)NC(=O)[C@@H]3[C@H]4[C@H](CN3C(=O)[C@@H](NC(=O)C(F)(F)F)C(C)(C)C)C4(C)C)cc2c1` (stereo in doubt) [Compound 107, (1R,2S,5S)—N-(1-Cyano-2-(6-methyl-2-oxo-1,2-dihydroquinolin-3-yl)ethyl)-3-((S)-3,3-dimethyl-2-(2,2,2-trifluoroacetamido)butanoyl)-6,6-dimethyl-3-azabicyclo[3.1.0]hexane-2-carboxamide] the figure was 50 to 100 nM; with `COc1ccc2[nH]c(=O)c(CC(C#N)NC(=O)[C@@H]3C4[C@H](CN3C(=O)[C@@H](NC(=O)C(F)(F)F)C(C)(C)C)C4(C)C)cc2c1` (stereo in doubt) [Compound 109, (1R,2S,5S)—N-(1-Cyano-2-(6-methoxy-2-oxo-1,2-dihydroquinolin-3-yl)ethyl)-3-((S)-3,3-dimethyl-2-(2,2,2-trifluoroacetamido)butanoyl)-6,6-dimethyl-3-azabicyclo[3.1.0]hexane-2-carboxamide], 250 to 500 nM.
On to `Cn1cccc(CC(C#N)NC(=O)[C@@H]2C3[C@H](CN2C(=O)[C@@H](NC(=O)C(F)(F)F)C(C)(C)C)C3(C)C)c1=O` (stereo in doubt) [Compound 112, (1R,2S,5S)—N-(1-Cyano-2-(1-methyl-2-oxo-1,2-dihydropyridin-3-yl)ethyl)-3-((S)-3,3-dimethyl-2-(2,2,2-trifluoroacetamido)butanoyl)-6,6-dimethyl-3-azabicyclo[3.1.0]hexane-2-carboxamide], for which the IC50 is at least 1000 nM.
For `CC(C)(C)[C@H](NS(C)(=O)=O)C(=O)N1C[C@H]2C([C@H]1C(=O)NC(C#N)Cc1cc3c([nH]c1=O)CCCC3)C2(C)C` (stereo in doubt) [Compound 122, (1R,2S,5S)—N-(1-Cyano-2-(2-oxo-1,2,5,6,7,8-hexahydroquinolin-3-yl)ethyl)-3-((S)-3,3-dimethyl-2-(methylsulfonamido)butanoyl)-6,6-dimethyl-3-azabicyclo[3.1.0]hexane-2-carboxamide], the IC50 is 100 to 250 nM.
As for `CC(C)(C)[C@H](NC(=O)C(F)(F)F)C(=O)N1C[C@H]2C([C@H]1C(=O)NC(C#N)Cc1cc3c([nH]c1=O)CCOC3)C2(C)C` (stereo in doubt) [Compound 123, (1R,2S,5S)—N-(1-Cyano-2-(2-oxo-1,5,7,8-tetrahydro-2H-pyrano[4,3-b]pyridine-3-yl)ethyl)-3-((S)-3,3-dimethyl-2-(2,2,2-trifluoroacetamido)butanoyl)-6,6-dimethyl-3-azabicyclo[3.1.0]hexane-2-carboxamide], the IC50 lay in the range of 100 to 250 nM.
The same measure, in the same setting: with `CC(C)(C)[C@H](NS(C)(=O)=O)C(=O)N1C[C@H]2C([C@H]1C(=O)NC(C#N)Cc1cc3c([nH]c1=O)CCOC3)C2(C)C` (stereo in doubt) [Compound 124, (1R,2S,5S)—N-(1-Cyano-2-(2-oxo-1,5,7,8-tetrahydro-2H-pyrano[4,3-b]pyridine-3-yl)ethyl)-3-((S)-3,3-dimethyl-2-(methylsulfonamido)butanoyl)-6,6-dimethyl-3-azabicyclo[3.1.0]hexane-2-carboxamide] the figure was 100 to 250 nM.
Take `CC(C)(C)[C@H](NC(=O)C(F)(F)F)C(=O)N1C[C@H]2C([C@H]1C(=O)NC(C#N)Cc1cc3c([nH]c1=O)CCC(F)(F)C3)C2(C)C` (stereo in doubt) [Compound 125, (1R,2S,5S)—N-(1-Cyano-2-(6,6-difluoro-2-oxo-1,2,5,6,7,8-hexahydroquinolin-3-yl)ethyl)-3-((S)-3,3-dimethyl-2-(2,2,2-trifluoroacetamido)butanoyl)-6,6-dimethyl-3-azabicyclo[3.1.0]hexane-2-carboxamide]: the IC50 was 250 to 500 nM.
For `CC(C)(C)[C@H](NS(C)(=O)=O)C(=O)N1C[C@H]2C([C@H]1C(=O)NC(C#N)Cc1cc3c([nH]c1=O)CCC(F)(F)C3)C2(C)C` (stereo in doubt) [Compound 126, (1R,2S,5S)—N-(1-Cyano-2-(6,6-difluoro-2-oxo-1,2,5,6,7,8-hexahydroquinolin-3-yl)ethyl)-3-((S)-3,3-dimethyl-2-(methylsulfonamido)butanoyl)-6,6-dimethyl-3-azabicyclo[3.1.0]hexane-2-carboxamide], the IC50 was in the range of 100 to 250 nM.
Consider `CC1(C)CCc2[nH]c(=O)c(CC(C#N)NC(=O)[C@@H]3C4[C@H](CN3C(=O)[C@@H](NC(=O)C(F)(F)F)C(C)(C)C)C4(C)C)cc2C1` (stereo in doubt) [Compound 127, (1R,2S,5S)—N-(1-Cyano-2-(6,6-dimethyl-2-oxo-1,2,5,6,7,8-hexahydroquinolin-3-yl)ethyl)-3-((S)-3,3-dimethyl-2-(2,2,2-trifluoroacetamido)butanoyl)-6,6-dimethyl-3-azabicyclo[3.1.0]hexane-2-carboxamide], for which the IC50 was 500 to 1000 nM.

Staying with this assay, now noted: Table B; comparison with known compound K; read-out: IC50, nM (3CL Protease enzymatic activity, comparative data).
On to `CC(C)(C)[C@H](NC(=O)C(F)(F)F)C(=O)N1C[C@H]2C([C@H]1C(=O)NC(C#N)Cc1ccc[nH]c1=O)C2(C)C` (stereo in doubt) [Compound 101, (1R,2S,5S)—N-(1-Cyano-2-(2-oxo-1,2-dihydropyridin-3-yl)ethyl)-3-((S)-3,3-dimethyl-2-(2,2,2-trifluoroacetamido)butanoyl)-6,6-dimethyl-3-azabicyclo[3.1.0]hexane-2-carboxamide], for which the IC50 is 147 nM.
For `CC(C)(C)[C@H](NC(=O)C(F)(F)F)C(=O)N1C[C@H]2C([C@H]1C(=O)NC(C#N)Cc1cc3cc(Cl)ccc3[nH]c1=O)C2(C)C` (stereo in doubt) [Compound 104, (1R,2S,5S)—N-(2-(6-Chloro-2-oxo-1,2-dihydroquinolin-3-yl)-1-cyanoethyl)-3-((S)-3,3-dimethyl-2-(2,2,2-trifluoroacetamido)butanoyl)-6,6-dimethyl-3-azabicyclo[3.1.0]hexane-2-carboxamide], the IC50 worked out at 89 nM.
Still for that read-out and setting: with `CC(C)(C)[C@H](NC(=O)C(F)(F)F)C(=O)N1C[C@H]2C([C@H]1C(=O)NC(C#N)Cc1cc3c([nH]c1=O)CCOC3)C2(C)C` (stereo in doubt) [Compound 123, (1R,2S,5S)—N-(1-Cyano-2-(2-oxo-1,5,7,8-tetrahydro-2H-pyrano[4,3-b]pyridine-3-yl)ethyl)-3-((S)-3,3-dimethyl-2-(2,2,2-trifluoroacetamido)butanoyl)-6,6-dimethyl-3-azabicyclo[3.1.0]hexane-2-carboxamide] the figure was 180 nM.
